Test results reported in ChEMBL document CHEMBL3351924, “Detailed analysis and follow-up studies of a high-throughput screening for indoleamine 2,3-dioxygenase 1 (IDO1) inhibitors” (Eur J Med Chem, 2014).
pIC50: −log10 of the molar value. Converted amounts (≈) assume the structure as drawn.

How the values were obtained:
[1] = Solubility of the compound in pH 6.5 phosphate buffer containing 5% DMSO
[2] = biological target: T1, Indoleamine 2,3-dioxygenase 1 (Homo sapiens, UniProt P14902); assay: Inhibition of IDO1 (unknown origin) using L-tryptophan substrate incubated for 60 mins in presence of 0.01% Triton-X by HPLC; details: for pIC50: read-out: IC50
[3] = biological target: T1, Indoleamine 2,3-dioxygenase 1; assay: Inhibition of IDO1 (unknown origin) using L-tryptophan substrate incubated for 60 mins by HPLC
[4] = Cytotoxicity against mouse P815B cells after 24 hrs by MTS/PMS assay
[5] = biological target: Indoleamine 2,3-dioxygenase 1 (Mus musculus, UniProt P28776); assay: Inhibition of mouse IDO1 expressed in mouse P815B cells using L-tryptophan substrate incubated for 18 hrs by HPLC based cellular assay; assay type: cell-based; details: p815b
[6] = biological target: Tryptophan 2,3-dioxygenase (Mus musculus, UniProt P48776); assay: Inhibition of mouse TDO expressed in mouse P815B cells using L-tryptophan substrate incubated for 24 hrs by HPLC based cellular assay; assay type: cell-based; details: p815b
[7] = biological target: T1, Indoleamine 2,3-dioxygenase 1; assay: Inhibition of IDO1 (unknown origin) using L-tryptophan substrate incubated for 60 mins in presence of 5 mM GSH by HPLC
[8] = phosphate buffer containing 5% DMSO

T1 sequence (P14902 whole entry): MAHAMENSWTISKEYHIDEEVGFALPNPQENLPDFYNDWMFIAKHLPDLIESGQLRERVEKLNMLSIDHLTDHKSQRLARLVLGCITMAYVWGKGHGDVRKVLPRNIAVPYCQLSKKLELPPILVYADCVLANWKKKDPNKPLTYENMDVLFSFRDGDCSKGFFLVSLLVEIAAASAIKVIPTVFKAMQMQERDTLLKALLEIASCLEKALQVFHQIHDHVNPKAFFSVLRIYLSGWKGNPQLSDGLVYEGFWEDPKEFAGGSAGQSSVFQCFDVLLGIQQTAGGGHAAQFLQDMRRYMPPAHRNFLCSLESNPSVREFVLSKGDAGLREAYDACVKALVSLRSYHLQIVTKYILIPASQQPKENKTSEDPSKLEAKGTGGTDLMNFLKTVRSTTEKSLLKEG
Tryptophan 2,3-dioxygenase, sequence (P48776 whole entry): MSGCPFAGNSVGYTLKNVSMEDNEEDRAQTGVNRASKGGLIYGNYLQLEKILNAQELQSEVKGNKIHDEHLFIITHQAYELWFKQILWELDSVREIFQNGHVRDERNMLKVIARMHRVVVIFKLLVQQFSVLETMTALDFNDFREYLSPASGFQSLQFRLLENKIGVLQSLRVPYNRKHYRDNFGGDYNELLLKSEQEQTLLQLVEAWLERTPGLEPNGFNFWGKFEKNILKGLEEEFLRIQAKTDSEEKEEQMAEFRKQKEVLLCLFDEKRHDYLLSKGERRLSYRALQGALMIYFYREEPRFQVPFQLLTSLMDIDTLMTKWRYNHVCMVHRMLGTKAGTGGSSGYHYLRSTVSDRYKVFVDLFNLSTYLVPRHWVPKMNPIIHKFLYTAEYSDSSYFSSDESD
Indoleamine 2,3-dioxygenase 1 (Mus musculus, UniProt P28776), sequence (P28776 whole entry): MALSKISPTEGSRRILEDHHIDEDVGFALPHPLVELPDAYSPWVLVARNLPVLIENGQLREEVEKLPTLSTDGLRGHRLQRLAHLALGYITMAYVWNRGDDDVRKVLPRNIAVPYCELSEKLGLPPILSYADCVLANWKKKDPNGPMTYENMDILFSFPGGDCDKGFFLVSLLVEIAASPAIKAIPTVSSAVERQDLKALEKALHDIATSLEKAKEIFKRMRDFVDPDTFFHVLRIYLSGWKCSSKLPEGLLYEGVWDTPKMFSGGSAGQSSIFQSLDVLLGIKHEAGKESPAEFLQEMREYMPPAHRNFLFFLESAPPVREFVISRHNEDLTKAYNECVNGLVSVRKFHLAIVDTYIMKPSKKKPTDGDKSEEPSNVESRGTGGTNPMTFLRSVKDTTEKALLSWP

With `N#C/C(=C\c1c[nH]cn1)S(=O)(=O)c1ccc(Cl)cc1` as the compound, how does the solubility [1, 8] read?
Its solubility is 1000 µM (≈ 294 µg/mL).

Which solubility [1, 8] does the source give for `Cc1nn(-c2ccccc2)nc1CNC(=O)c1ccc2nsnc2c1` here?
Its solubility is 50 µM (≈ 17.5 µg/mL).

With `COc1ccccc1NC(=S)N/N=C/c1ccco1` as the compound, how does the solubility [1, 8] read?
Its solubility is 250 µM (≈ 68.8 µg/mL).

Which results are given for `OC(Cn1ccnc1)c1ccc(Cl)cc1Cl` (configuration not stated)?
solubility [1, 8]: > 1000 µM; pIC50 [2]: 3.89

For `N#C/C(=C\c1c[nH]cn1)S(=O)(=O)c1cccs1`, which solubility [1, 8] is on record?
Its solubility is 1000 µM (≈ 265 µg/mL).

Which results are given for `OC(Cn1ccnc1)c1cccc(Cl)c1` (configuration not stated)?
solubility [1, 8]: > 1000 µM; IC50 [2]: Not Active

Which solubility [1, 8] does the source give for `Clc1ccc(Sc2nc(-c3cccs3)ns2)cc1` here?
Its solubility is 100 µM (≈ 31.1 µg/mL).

With `COc1ccc(-c2n[nH]cc2/C=C(/C#N)S(C)(=O)=O)cc1` as the compound, how does the solubility [1, 8] read?
The solubility was 100 µM (≈ 30.3 µg/mL).

For `Clc1ccc(C(Cn2ccnc2)OCc2ccsc2Cl)c(Cl)c1` (configuration not stated) [TIOCONAZOLE], which solubility ([1]; buffer) is on record?
Its solubility is 10 µM (≈ 3.88 µg/mL).

And the IC50 [3]?
The IC50 was “Not Active”.

Which results are given for `Clc1ccc(CSC(Cn2ccnc2)c2ccc(Cl)cc2Cl)cc1` (configuration not stated) [SULCONAZOLE]?
CC50 at 24 h ([4]; p815b): 10 µM; solubility [1, 8]: 10 µM (≈ 3.98 µg/mL); IC50 [5]: Not Active; IC50 [6]: Not Active

With `O=C(CC(=O)c1cccnc1)c1cccnc1` as the compound, how does the solubility [1, 8] read?
Its solubility is 1000 µM (≈ 226 µg/mL).

For `Cc1cc(N/C=C(\C#N)S(=O)(=O)c2ccccc2Cl)nc(C)n1`, which solubility [1, 8] is on record?
The solubility was 250 µM (≈ 87.2 µg/mL).

For `Cn1cc(Cl)c(/C=C(\C#N)S(=O)(=O)C(C)(C)C)n1`, which solubility [1, 8] is on record?
Its solubility is 1000 µM (≈ 288 µg/mL).

Which results are given for `Sc1ncnc2nc[nH]c12` [MERCAPTOPURINE ANHYDROUS]?
solubility [1, 8]: 1000 µM (≈ 152 µg/mL); IC50 [3]: Not Active

For `OC(Cn1cncn1)c1ccc(Cl)cc1Cl` (configuration not stated), which solubility [1, 8] is on record?
Its solubility is over 1000 µM.

And the IC50 [2]?
The IC50 was “Not Active”.

For `O=C(Cn1ccnc1)c1ccc(Cl)cc1Cl`, which solubility [1, 8] is on record?
The solubility was over 1000 µM.

What about the IC50 [2] of the same compound?
Its IC50 is “Not Active”.

Which solubility [1, 8] does the source give for `CC(C)(N)Cc1ccccc1` [PHENTERMINE] here?
Its solubility is 1000 µM (≈ 149 µg/mL).

With `COC(Cn1ccnc1)c1ccc(Cl)cc1Cl` (configuration not stated) as the compound, how does the solubility [1, 8] read?
Its solubility is over 1000 µM.

What about the pIC50 [2] of the same compound?
The pIC50 was 3.85.

Which results are given for `Clc1ccc(COC(Cn2ccnc2)c2ccc(Cl)cc2Cl)cc1` (configuration not stated) [ECONAZOLE]?
CC50 at 24 h ([4]; P815B cells): 10 µM; solubility [1, 8]: 10 µM (≈ 3.82 µg/mL); IC50 [5]: Not Active; pIC50 [3]: 5.09; IC50 [6]: Not Active

For `Oc1c(Cl)cc(Cl)cc1/C=N/c1ccc2[nH]cnc2c1`, which solubility [1, 8] is on record?
Its solubility is 10 µM (≈ 3.06 µg/mL).

What does the source list for `OC(Cn1ccnc1)c1ccccc1` (configuration not stated)?
solubility [1, 8]: > 1000 µM; IC50 [2]: Not Active

Which solubility [1, 8] does the source give for `COCCCOc1ccnc(C[S+]([O-])c2nc3ccccc3[nH]2)c1C` (configuration not stated) [RABEPRAZOLE] here?
The solubility was 1000 µM (≈ 359 µg/mL).

And the IC50 [3]?
Its IC50 is “Not Active”.

Which solubility [1, 8] does the source give for `OC(Cn1ccnc1)c1ccc(Cl)cc1` (configuration not stated) here?
Its solubility is over 1000 µM.

And the IC50 [2]?
Its IC50 is “Not Active”.

With `COC(=O)/C(C#N)=C1/C(=O)Nc2ccccc21` as the compound, how does the pIC50 [7] read?
Its pIC50 is 3.89.

What about the CC50 at 24 h ([4]; P815B cells) of the same compound?
The CC50 at 24 h was over 25 µM.

And the solubility [1, 8]?
Its solubility is 100 µM (≈ 22.8 µg/mL).

What about the IC50 [5] of the same compound?
Its IC50 is “Not Active”.

What about the pIC50 ([3]; read-out: IC50) of the same compound?
Its pIC50 is 5.74.

And the IC50 [6]?
The IC50 was “Not Active”.

Which results are given for `c1ccc(-n2ccnc2)cc1`?
solubility [1, 8]: > 1000 µM; IC50 [2]: Not Active

Which solubility [1, 8] does the source give for `c1ccc(Cn2ccnc2)cc1` [BENZYLIMIDAZOLE] here?
The solubility was over 1000 µM.

And the IC50 [2]?
The IC50 was “Not Active”.

With `COc1cccc(N(C)C(=S)Oc2ccc3c(c2)CCCC3)n1` [LIRANAFTATE] as the compound, how does the solubility [1, 8] read?
The solubility was 12.5 µM (≈ 4.11 µg/mL).

Which solubility [1, 8] does the source give for `Clc1ccc(Cn2ccnc2)c(Cl)c1` here?
The solubility was over 1000 µM.

What about the pIC50 [2] of the same compound?
The pIC50 was 3.51.

What does the source list for `NNC(=O)c1nn(-c2ccccc2)c(=O)c2c(N)scc12`?
CC50 at 24 h ([4]; P815B cells): > 25 µM; solubility [1, 8]: 1000 µM (≈ 301 µg/mL); IC50 [5]: Not Active; pIC50 ([3]; read-out: IC50): 4.89; IC50 [6]: Not Active; pIC50 [2]: 4.82

With `OC(Cn1ccnc1)c1ccc(Cl)c(Cl)c1` (configuration not stated) as the compound, how does the solubility [1, 8] read?
Its solubility is over 1000 µM.

What about the pIC50 [2] of the same compound?
The pIC50 was 3.08.

Which solubility [1, 8] does the source give for `NC(=S)N/N=C/c1c(F)cccc1Cl` here?
The solubility was 250 µM (≈ 57.9 µg/mL).

Which solubility [1, 8] does the source give for `NC(=O)N/N=C/c1ccc(-c2ccc(C(F)(F)F)cc2[N+](=O)[O-])o1` here?
Its solubility is 50 µM (≈ 17.1 µg/mL).

What about the IC50 [3] of the same compound?
The IC50 was “Not Active”.

Which results are given for `Clc1ccc(CCn2ccnc2)c(Cl)c1`?
solubility [1, 8]: > 1000 µM; pIC50 [2]: 3.09

For `OC(Cn1ccnc1)c1ccccc1Cl` (configuration not stated), which solubility [1, 8] is on record?
Its solubility is over 1000 µM.

What about the pIC50 [2] of the same compound?
Its pIC50 is 3.70.

For `OC(Cc1c[nH]nn1)c1ccc(Cl)cc1Cl` (configuration not stated), which solubility [1, 8] is on record?
Its solubility is over 1000 µM.

And the IC50 [2]?
Its IC50 is “Not Active”.

Which results are given for `COC(=O)/C(C#N)=C(\C#N)c1ccc(Br)o1`?
pIC50 [7]: 5.15; CC50 at 24 h ([4]; P815B cells): 5 µM; solubility [1, 8]: 100 µM (≈ 28.1 µg/mL); IC50 [5]: Not Active; pIC50 ([3]; read-out: IC50): 6.15; IC50 [6]: Not Active

Which results are given for `Clc1ccc(C(Cn2ccnc2)OCc2csc3c(Cl)cccc23)c(Cl)c1` (configuration not stated) [SERTACONAZOLE]?
CC50 at 24 h ([4]; P815B cells): 10 µM; solubility [1, 8]: 10 µM (≈ 4.38 µg/mL); IC50 [5]: Not Active; pIC50 ([3]; read-out: IC50): 5.08; IC50 [6]: Not Active

With `CSC1=NNC(c2ccccn2)S1` (configuration not stated) as the compound, how does the solubility [1, 8] read?
Its solubility is 100 µM (≈ 21.1 µg/mL).
